Earlier results, collected in patent US20220016310A1, “ANTIMICROBIAL SHAPE MEMORY POLYMERS” (THE TEXAS A&M UNIVERSITY SYSTEM, priority 2016, published 2022).

Tested on: antibiotic-resistant bacteria (Enterobacter aerogenes, Escherichia coli, and Staphylococcus aureus)
Conditions: bacteria obtained from hospitals

O=C(O)C=Cc1ccccc1 [cinnamic acid]
Susceptibility of antibiotic-resistant bacteria: susceptible
